Counter-ions that a name gives are not always drawn.
Key:
[1] = biological target: ATP-binding cassette sub-family C member 3 (Homo sapiens, UniProt O15438); assay: Inhibition of human MRP3 overexpressed in Sf9 insect cell membrane vesicles assessed as uptake of [3H]-estradiol-17beta-D-glucuronide in presence of ATP and GSH measured after 10 mins by membrane vesicle transport assay; assay type: ADME, cell-based
[2] = biological target: T1, ATP-binding cassette sub-family C member 4 (Homo sapiens, UniProt O15439); assay: Inhibition of human MRP4 overexpressed in Sf9 cell membrane vesicles assessed as uptake of [3H]-estradiol-17beta-D-glucuronide in presence of ATP and GSH measured after 20 mins by membrane vesicle transport assay; assay type: ADME, cell-based
T1 sequence (O15439 whole entry): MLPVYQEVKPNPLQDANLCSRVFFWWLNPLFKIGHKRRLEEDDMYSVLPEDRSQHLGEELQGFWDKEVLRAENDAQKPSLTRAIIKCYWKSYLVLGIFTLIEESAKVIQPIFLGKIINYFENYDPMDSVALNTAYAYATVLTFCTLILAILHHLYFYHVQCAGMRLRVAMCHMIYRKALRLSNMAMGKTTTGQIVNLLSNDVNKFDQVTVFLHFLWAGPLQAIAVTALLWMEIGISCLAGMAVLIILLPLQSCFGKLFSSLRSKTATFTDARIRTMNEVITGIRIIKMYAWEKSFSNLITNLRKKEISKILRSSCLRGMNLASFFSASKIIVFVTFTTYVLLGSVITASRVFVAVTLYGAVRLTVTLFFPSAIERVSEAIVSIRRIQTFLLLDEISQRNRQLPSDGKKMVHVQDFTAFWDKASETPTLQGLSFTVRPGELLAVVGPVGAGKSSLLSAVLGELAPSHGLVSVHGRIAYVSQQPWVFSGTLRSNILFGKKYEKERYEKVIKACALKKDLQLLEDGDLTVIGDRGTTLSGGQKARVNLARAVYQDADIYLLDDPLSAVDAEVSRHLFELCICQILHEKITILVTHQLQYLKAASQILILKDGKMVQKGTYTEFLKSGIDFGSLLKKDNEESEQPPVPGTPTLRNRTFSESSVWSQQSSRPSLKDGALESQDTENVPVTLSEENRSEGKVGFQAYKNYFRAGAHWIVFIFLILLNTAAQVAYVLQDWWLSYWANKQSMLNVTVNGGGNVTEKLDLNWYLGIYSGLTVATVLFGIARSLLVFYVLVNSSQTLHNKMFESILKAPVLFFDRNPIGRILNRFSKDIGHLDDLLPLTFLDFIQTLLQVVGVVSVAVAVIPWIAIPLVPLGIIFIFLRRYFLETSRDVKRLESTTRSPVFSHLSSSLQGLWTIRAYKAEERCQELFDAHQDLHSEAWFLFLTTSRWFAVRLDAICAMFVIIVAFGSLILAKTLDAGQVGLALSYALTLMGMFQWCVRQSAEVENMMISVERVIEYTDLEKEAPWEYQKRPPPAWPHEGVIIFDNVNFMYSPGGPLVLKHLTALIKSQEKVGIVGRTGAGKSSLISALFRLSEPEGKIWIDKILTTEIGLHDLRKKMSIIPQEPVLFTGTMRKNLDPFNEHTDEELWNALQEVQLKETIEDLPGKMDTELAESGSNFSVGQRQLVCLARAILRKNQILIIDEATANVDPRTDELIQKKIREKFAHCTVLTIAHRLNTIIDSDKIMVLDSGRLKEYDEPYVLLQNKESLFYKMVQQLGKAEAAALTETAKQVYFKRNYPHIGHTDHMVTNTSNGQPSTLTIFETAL

[3] = biological target: ATP-binding cassette sub-family C member 2 (Homo sapiens, UniProt Q92887); assay: Inhibition of human MRP2 overexpressed in Sf9 cell membrane vesicles assessed as uptake of [3H]-estradiol-17beta-D-glucuronide in presence of ATP and GSH measured after 20 mins by membrane vesicle transport assay
Sequence of ATP-binding cassette sub-family C member 2 (Q92887 whole entry): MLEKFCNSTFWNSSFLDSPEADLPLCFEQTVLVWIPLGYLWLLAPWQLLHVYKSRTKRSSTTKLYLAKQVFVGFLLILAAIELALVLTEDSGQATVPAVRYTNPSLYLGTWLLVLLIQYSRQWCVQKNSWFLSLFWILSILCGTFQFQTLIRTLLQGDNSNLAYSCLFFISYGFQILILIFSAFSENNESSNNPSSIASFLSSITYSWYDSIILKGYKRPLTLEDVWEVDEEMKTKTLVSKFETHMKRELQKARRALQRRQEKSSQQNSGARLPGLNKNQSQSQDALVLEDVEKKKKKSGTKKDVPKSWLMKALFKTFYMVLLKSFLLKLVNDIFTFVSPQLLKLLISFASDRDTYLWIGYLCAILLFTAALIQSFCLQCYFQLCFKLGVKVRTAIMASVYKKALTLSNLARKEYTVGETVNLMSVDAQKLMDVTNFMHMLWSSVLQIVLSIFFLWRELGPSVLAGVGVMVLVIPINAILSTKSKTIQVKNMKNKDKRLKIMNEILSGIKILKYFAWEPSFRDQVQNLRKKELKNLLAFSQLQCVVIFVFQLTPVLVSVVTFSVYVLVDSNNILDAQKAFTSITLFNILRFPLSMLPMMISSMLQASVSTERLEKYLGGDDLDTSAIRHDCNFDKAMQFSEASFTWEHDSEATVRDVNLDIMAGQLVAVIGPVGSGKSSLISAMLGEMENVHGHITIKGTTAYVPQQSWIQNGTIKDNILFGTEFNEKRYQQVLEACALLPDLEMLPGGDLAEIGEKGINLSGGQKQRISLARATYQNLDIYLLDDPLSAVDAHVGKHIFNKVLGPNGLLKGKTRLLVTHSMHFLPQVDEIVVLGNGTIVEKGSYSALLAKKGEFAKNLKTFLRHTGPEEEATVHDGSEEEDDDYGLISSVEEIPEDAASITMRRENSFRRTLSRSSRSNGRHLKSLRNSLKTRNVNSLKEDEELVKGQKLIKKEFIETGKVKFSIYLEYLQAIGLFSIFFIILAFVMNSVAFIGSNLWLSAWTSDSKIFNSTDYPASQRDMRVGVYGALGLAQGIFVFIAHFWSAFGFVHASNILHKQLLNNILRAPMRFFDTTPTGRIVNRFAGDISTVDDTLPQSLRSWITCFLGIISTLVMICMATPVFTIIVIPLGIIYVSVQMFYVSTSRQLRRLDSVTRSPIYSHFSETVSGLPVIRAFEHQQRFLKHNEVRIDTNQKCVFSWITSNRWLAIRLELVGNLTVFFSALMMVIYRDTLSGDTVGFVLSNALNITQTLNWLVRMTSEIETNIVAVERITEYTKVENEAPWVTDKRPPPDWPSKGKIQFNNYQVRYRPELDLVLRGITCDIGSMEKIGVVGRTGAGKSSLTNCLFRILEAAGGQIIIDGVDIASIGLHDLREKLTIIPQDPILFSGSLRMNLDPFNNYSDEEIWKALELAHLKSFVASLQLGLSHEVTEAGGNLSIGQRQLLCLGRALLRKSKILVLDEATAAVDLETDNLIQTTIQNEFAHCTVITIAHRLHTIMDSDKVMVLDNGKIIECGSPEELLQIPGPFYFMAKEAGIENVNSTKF

Bile salt export pump = Bile salt export pump (Homo sapiens, UniProt O95342); assay: Inhibition of human BSEP overexpressed in Sf9 cell membrane vesicles assessed as uptake of [3H]-taurocholate in presence of ATP measured after 15 to 20 mins by membrane vesicle transport assay; assay type: ADME, cell-based
Sequence of Bile salt export pump (O95342 whole entry): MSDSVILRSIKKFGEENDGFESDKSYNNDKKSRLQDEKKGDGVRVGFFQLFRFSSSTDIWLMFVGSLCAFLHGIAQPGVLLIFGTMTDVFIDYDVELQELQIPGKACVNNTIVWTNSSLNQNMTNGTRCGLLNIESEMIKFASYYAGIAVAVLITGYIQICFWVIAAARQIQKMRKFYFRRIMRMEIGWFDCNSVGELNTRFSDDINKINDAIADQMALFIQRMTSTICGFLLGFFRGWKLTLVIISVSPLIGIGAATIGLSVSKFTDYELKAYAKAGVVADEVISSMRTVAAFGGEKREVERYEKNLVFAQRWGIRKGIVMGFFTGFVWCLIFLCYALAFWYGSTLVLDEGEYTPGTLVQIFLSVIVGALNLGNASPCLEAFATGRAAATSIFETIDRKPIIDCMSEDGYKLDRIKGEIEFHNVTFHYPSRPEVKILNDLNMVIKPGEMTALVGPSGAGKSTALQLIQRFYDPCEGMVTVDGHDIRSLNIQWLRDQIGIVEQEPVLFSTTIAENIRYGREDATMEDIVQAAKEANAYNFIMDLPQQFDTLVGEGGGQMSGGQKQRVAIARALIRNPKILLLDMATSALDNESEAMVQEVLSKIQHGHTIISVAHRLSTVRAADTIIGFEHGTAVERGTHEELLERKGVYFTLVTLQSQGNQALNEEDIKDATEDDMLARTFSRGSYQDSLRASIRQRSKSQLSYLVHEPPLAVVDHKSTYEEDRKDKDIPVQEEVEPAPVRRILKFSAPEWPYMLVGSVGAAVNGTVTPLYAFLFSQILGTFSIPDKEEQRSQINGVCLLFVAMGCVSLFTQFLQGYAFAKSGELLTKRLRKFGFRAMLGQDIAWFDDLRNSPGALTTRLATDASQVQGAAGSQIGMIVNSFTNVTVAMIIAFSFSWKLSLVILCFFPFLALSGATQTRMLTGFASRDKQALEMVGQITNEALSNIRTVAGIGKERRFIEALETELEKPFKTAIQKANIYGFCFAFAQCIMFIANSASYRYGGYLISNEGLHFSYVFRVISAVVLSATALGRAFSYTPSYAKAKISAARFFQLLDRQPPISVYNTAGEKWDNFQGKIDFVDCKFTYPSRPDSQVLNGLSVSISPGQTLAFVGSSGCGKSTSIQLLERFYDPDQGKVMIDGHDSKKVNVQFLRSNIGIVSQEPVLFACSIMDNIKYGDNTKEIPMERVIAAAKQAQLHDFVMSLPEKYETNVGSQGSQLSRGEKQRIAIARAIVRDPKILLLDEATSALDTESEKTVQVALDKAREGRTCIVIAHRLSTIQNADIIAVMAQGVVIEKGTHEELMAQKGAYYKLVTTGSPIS

Sequence of ATP-binding cassette sub-family C member 3 (O15438 whole entry): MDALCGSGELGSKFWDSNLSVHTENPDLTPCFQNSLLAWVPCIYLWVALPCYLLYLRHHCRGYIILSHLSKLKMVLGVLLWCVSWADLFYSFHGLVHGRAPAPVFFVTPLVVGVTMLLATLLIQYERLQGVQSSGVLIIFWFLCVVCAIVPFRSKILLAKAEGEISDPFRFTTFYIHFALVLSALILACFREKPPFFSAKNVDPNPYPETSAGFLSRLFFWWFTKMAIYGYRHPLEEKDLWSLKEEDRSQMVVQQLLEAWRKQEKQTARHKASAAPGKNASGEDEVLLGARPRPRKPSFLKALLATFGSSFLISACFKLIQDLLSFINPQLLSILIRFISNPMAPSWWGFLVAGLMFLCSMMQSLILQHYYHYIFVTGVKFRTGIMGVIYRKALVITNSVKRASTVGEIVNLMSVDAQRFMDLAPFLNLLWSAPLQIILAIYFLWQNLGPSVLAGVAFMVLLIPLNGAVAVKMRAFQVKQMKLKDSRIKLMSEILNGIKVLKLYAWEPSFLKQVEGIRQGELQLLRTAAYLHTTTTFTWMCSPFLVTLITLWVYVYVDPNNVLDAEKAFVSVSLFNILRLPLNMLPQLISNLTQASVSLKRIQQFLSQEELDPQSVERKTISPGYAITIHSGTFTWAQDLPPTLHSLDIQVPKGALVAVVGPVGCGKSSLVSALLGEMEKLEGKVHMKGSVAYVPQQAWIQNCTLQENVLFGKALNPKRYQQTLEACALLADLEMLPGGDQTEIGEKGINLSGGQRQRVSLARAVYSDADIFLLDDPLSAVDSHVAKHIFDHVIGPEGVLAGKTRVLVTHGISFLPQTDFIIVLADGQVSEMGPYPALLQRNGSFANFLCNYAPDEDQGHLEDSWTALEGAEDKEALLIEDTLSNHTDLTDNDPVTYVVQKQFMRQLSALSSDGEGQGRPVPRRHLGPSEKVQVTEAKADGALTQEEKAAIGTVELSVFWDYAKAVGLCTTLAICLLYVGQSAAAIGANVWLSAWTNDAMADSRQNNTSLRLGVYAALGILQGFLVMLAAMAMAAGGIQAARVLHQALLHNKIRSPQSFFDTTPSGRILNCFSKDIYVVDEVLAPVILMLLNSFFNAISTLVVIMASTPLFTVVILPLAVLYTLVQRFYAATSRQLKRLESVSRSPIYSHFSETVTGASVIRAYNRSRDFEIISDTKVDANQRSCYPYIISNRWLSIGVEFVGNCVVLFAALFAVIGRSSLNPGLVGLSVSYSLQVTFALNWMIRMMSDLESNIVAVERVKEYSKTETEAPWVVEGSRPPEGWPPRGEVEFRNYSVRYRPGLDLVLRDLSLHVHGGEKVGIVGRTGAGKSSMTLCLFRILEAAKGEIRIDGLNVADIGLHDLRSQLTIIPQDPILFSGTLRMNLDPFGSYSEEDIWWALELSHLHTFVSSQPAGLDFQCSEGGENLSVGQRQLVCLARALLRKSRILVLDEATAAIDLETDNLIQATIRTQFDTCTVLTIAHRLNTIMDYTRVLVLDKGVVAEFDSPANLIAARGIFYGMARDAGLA

| SMILES | IC50 [1] [µM] | IC50 [2] [µM] | IC50 [3] [µM] | IC50 (Bile salt export pump) [µM] |
| --- | --- | --- | --- | --- |
| CC(=O)NS(=O)(=O)c1ccc(N)cc1 | > 133 | > 133 | > 133 | > 133 |
| CC(C)=CCC1C(=O)N(c2ccccc2)N(c2ccccc2)C1=O [FEPRAZONE] | > 133 | > 133 | > 133 | 73.9 |
| CCC(=O)O[C@@H]1CC(=O)O[C@H](C)C/C=C/C=C/[C@H](O)[C@H](C)C[C@H](CC=O)[C@H](O[C@@H]2O[C@H](C)[C@@H](O[C@H]3C[C@@](C)(O)[C@@H](OC(=O)CC)[C@H](C)O3)[C@H](N(C)C)[C@H]2O)[C@H]1OC [MIDECAMYCIN] | > 133 | > 133 | > 133 | 14.3 |
| CC(=O)NC[C@H]1CN(c2ccc(N3CCOCC3)c(F)c2)C(=O)O1 [LINEZOLID] | > 133 | > 133 | > 133 | > 133 |
| CCC1(c2ccc(N)cc2)CCC(=O)NC1=O (stereo not given) [AMINOGLUTETHIMIDE] | > 133 | > 133 | > 133 | > 133 |
| CCN(CC)CCNC(=O)c1cc(S(C)(=O)=O)ccc1OC [TIAPRIDE] | > 133 | > 133 | > 133 | > 133 |
| CN(CCOc1ccc(NS(C)(=O)=O)cc1)CCc1ccc(NS(C)(=O)=O)cc1 [DOFETILIDE] | > 133 | > 133 | > 133 | > 133 |
| O=c1[nH]c(=O)n([C@H]2CCCO2)cc1F | > 133 | > 133 | > 133 | > 133 |
| CO/N=C(\C(=O)N[C@@H]1C(=O)N2C(C(=O)OC(C)OC(C)=O)=C(COC(N)=O)CS[C@H]12)c1ccco1 (stereo not given in full) [CEFUROXIME AXETIL] | > 133 | 28 | > 133 | > 133 |
| NCCCC(N)(C(=O)O)C(F)F (stereo not given) [EFLORNITHINE HYDROCHLORIDE] | > 133 | > 133 | > 133 | > 133 |
| CC(c1cc2ccccc2s1)N(O)C(N)=O (stereo not given) [ZILEUTON] | > 133 | > 133 | > 133 | > 133 |
| O=NN(CCCl)C(=O)NCCCl [CARMUSTINE] | > 133 | > 133 | > 133 | > 133 |
| CCOC(=O)[C@H](CCc1ccccc1)N[C@@H](C)C(=O)N1CCC[C@H]1C(=O)O [ENALAPRIL MALEATE] | > 133 | > 133 | > 133 | > 133 |
| CC(C)C[C@H](NC(=O)[C@H](Cc1ccccc1)NC(=O)c1cnccn1)B(O)O [BORTEZOMIB] | > 133 | > 133 | > 133 | > 133 |
| CCN(CC)CCOc1ccc(C(=C(Cl)c2ccccc2)c2ccccc2)cc1 [CLOMIPHENE] | > 133 | > 133 | > 133 | > 133 |
| CN1CC(=O)N2[C@H](c3ccc4c(c3)OCO4)c3[nH]c4ccccc4c3C[C@@H]2C1=O | > 133 | > 133 | > 133 | > 133 |
| [H]/N=C(/N)N/C(=N/[H])NCCc1ccccc1 [PHENFORMIN] | > 133 | > 133 | > 133 | > 133 |
| O=C(NC[C@H]1CN(c2ccc(N3CCOCC3=O)cc2)C(=O)O1)c1ccc(Cl)s1 [RIVAROXABAN] | > 133 | > 133 | > 133 | > 133 |
| Nc1cccc2c1CN(C1CCC(=O)NC1=O)C2=O (stereo not given) [LENALIDOMIDE] | > 133 | > 133 | > 133 | > 133 |
| Nc1cc(-c2ccncc2)c[nH]c1=O [INAMRINONE] | > 133 | > 133 | > 133 | > 133 |

| SMILES | IC50 [1] [µM] | IC50 [2] [µM] | IC50 [3] [µM] | IC50 (Bile salt export pump) [µM] |
| --- | --- | --- | --- | --- |
| CNCC[C@@H](Oc1ccccc1C)c1ccccc1 [ATOMOXETINE HYDROCHLORIDE] | > 133 | > 133 | > 133 | > 133 |
| CC(=O)Nc1c(I)c(NC(C)=O)c(I)c(C(=O)O)c1I [DIATRIZOIC ACID] | > 133 | > 133 | > 133 | > 133 |
| CN(C)CCCC1(c2ccc(F)cc2)OCc2cc(C#N)ccc21 (stereo not given) [CITALOPRAM] | > 133 | > 133 | > 133 | > 133 |
| O=C(O)CCCc1ccc(N(CCCl)CCCl)cc1 [CHLORAMBUCIL] | > 133 | > 133 | > 133 | > 133 |
| CCOC(=O)c1ccc(C#Cc2ccc3c(c2)C(C)(C)CCS3)nc1 [TAZAROTENE] | > 133 | > 133 | > 133 | > 133 |
| NCc1ccc(S(N)(=O)=O)cc1 [MAFENIDE ACETATE] | > 133 | > 133 | > 133 | > 133 |
| Oc1ccc2c(c1)[C@@]13CCCC[C@@]1(O)[C@@H](C2)N(CC1CCC1)CC3 [BUTORPHANOL] | > 133 | > 133 | > 133 | > 133 |
| CC(C)C(=O)Oc1ccc(CO)cc1[C@H](CCN(C(C)C)C(C)C)c1ccccc1 [FESOTERODINE FUMARATE] | > 133 | > 133 | > 133 | > 133 |
| Nc1ccn(C[C@@H](CO)OCP(=O)(O)O)c(=O)n1 [CIDOFOVIR] | > 133 | > 133 | > 133 | > 133 |
| Cc1onc(-c2ccccc2)c1C(=O)N[C@@H]1C(=O)N2[C@@H]1SC(C)(C)[C@@H]2C(=O)O | > 133 | > 133 | > 133 | > 133 |
| Cc1cc2c(s1)Nc1ccccc1N=C2N1CCN(C)CC1 [OLANZAPINE] | > 133 | > 133 | > 133 | > 133 |
| COc1cccc2c1C(=O)c1c(O)c3c(c(O)c1C2=O)C[C@@](O)(C(=O)CO)C[C@@H]3O[C@H]1C[C@H](N)[C@H](O)[C@H](C)O1 [DOXORUBICIN] | > 133 | 19 | > 133 | > 133 |
| Clc1ccc(COC(Cn2ccnc2)c2ccc(Cl)cc2Cl)c(Cl)c1 (stereo not given) [MICONAZOLE NITRATE] | > 133 | > 133 | > 133 | 114 |
| CN1CCC[C@H]1c1cccnc1 [NICOTINE] | > 133 | > 133 | > 133 | > 133 |
| CO[C@H]1O[C@@H]2O[C@@]3(C)CC[C@H]4[C@H](C)CC[C@@H]([C@H]1C)[C@@]24OO3 | > 133 | > 133 | > 133 | > 133 |
| CC(C)NNC(=O)c1ccncc1 [IPRONIAZID] | > 133 | > 133 | > 133 | > 133 |
| O=C1CCc2cc(OCCCCc3nnnn3C3CCCCC3)ccc2N1 [CILOSTAZOL] | > 133 | 16.6 | > 133 | > 133 |
| CN1C(C(=O)Nc2ccccn2)=C(O)c2sccc2S1(=O)=O [TENOXICAM] | > 133 | > 133 | > 133 | > 133 |
| CC(NC(C)(C)C)C(=O)c1cccc(Cl)c1 (stereo not given) [BUPROPION HYDROCHLORIDE] | > 133 | > 133 | > 133 | > 133 |
| C[C@H]1O[C@H](O[C@H]2[C@H](O)[C@@H](O)[C@@H](O[C@H]3[C@H](O)[C@@H](O)C(O)O[C@@H]3CO)O[C@@H]2CO)[C@H](O)[C@@H](O)[C@@H]1N[C@H]1C=C(CO)[C@@H](O)[C@H](O)[C@H]1O (stereo not given in full) [ACARBOSE] | > 133 | > 133 | > 133 | > 133 |
